Results on six compounds are retold here after PubChem BioAssay AID1259407 (Chemical Carcinogenesis Research Information System (CCRIS), 2018).

The test system of the series is CCRIS mutagenicity, Ames/micronucleus/aberration tests. Nature of the series: CCRIS mutagenicity studies.
The mark [1] stands for this setting: Test System: AMES SALMONELLA TYPHIMURIUM, Strain/Indicator: TA97, Metabolic Activation: NONE, Method: STANDARD PLATE.
[2] abbreviates: Test System: AMES SALMONELLA TYPHIMURIUM, Strain/Indicator: TA98, Metabolic Activation: NONE, Method: STANDARD PLATE.
The mark [3] stands for this setting: Test System: AMES SALMONELLA TYPHIMURIUM, Strain/Indicator: TA98, Metabolic Activation: RAT, LIVER, S-9, AROCLOR 1254, Method: STANDARD PLATE.
Setting [4] is: Test System: AMES SALMONELLA TYPHIMURIUM, Strain/Indicator: TA100, Metabolic Activation: NONE, Method: STANDARD PLATE.
[5] abbreviates: Test System: AMES SALMONELLA TYPHIMURIUM, Strain/Indicator: TA100, Metabolic Activation: RAT, LIVER, S-9, AROCLOR 1254, Method: STANDARD PLATE.
Where [6] appears, read: Test System: AMES SALMONELLA TYPHIMURIUM, Strain/Indicator: TA1535, Metabolic Activation: NONE, Method: STANDARD PLATE.
[7] abbreviates: Test System: AMES SALMONELLA TYPHIMURIUM, Strain/Indicator: TA1535, Metabolic Activation: RAT, LIVER, S-9, AROCLOR 1254, Method: STANDARD PLATE.
[8] abbreviates: Test System: AMES SALMONELLA TYPHIMURIUM, Strain/Indicator: TA1537, Metabolic Activation: NONE, Method: STANDARD PLATE.
Setting [9] is: Test System: AMES SALMONELLA TYPHIMURIUM, Strain/Indicator: TA1537, Metabolic Activation: RAT, LIVER, S-9, AROCLOR 1254, Method: STANDARD PLATE.
Where [10] appears, read: Test System: AMES SALMONELLA TYPHIMURIUM, Strain/Indicator: TA1538, Metabolic Activation: NONE, Method: STANDARD PLATE.
The mark [11] stands for this setting: Test System: CHINESE HAMSTER V-79, Strain/Indicator: V-79/6-THIOGUANINE, Metabolic Activation: NONE, Method: STANDARD PLATE.

Structures are written as SMILES. Activity calls are given as the source filed them. How the calls were made is not given here.

Take `CC1(C)C(C=C(Cl)Cl)C1C(=O)OC(C#N)c1cccc(Oc2ccccc2)c1` (centres undefined): the mutagenic call is, setting by setting: (Test System: AMES SALMONELLA TYPHIMURIUM, Strain/Indicator: TA97, Metabolic Activation: BARLEY, HOMOGENATES, Method: STANDARD PLATE) “inactive; negative”; under setting [1], “inactive; negative”; (Test System: AMES SALMONELLA TYPHIMURIUM, Strain/Indicator: TA97, Metabolic Activation: RAT, LIVER, S-9, DELOR 103, Method: STANDARD PLATE) “inactive; negative”; (Test System: AMES SALMONELLA TYPHIMURIUM, Strain/Indicator: TA98, Metabolic Activation: BARLEY, HOMOGENATES, Method: STANDARD PLATE) “inactive; negative”; under setting [2], “inactive; negative”; under setting [3], “inactive; negative”. Further, the mutagenic call is, setting by setting: (Test System: AMES SALMONELLA TYPHIMURIUM, Strain/Indicator: TA98, Metabolic Activation: RAT, LIVER, S-9, DELOR 103, Method: STANDARD PLATE) “inactive; negative”; (Test System: AMES SALMONELLA TYPHIMURIUM, Strain/Indicator: TA100, Metabolic Activation: BARLEY, HOMOGENATES, Method: STANDARD PLATE) “inactive; negative”; under setting [4], “inactive; negative”; under setting [5], “inactive; negative”; (Test System: AMES SALMONELLA TYPHIMURIUM, Strain/Indicator: TA100, Metabolic Activation: RAT, LIVER, S-9, DELOR 103, Method: STANDARD PLATE) “inactive; negative”; (Test System: AMES SALMONELLA TYPHIMURIUM, Strain/Indicator: TA1535, Metabolic Activation: BARLEY, HOMOGENATES, Method: STANDARD PLATE) “inactive; negative”. The mutagenic call runs as follows: under setting [6], “inactive; negative”; under setting [7], “inactive; negative”; (Test System: AMES SALMONELLA TYPHIMURIUM, Strain/Indicator: TA1535, Metabolic Activation: RAT, LIVER, S-9, DELOR 103, Method: STANDARD PLATE) “inactive; negative”; under setting [8], “inactive; negative”; under setting [9], “inactive; negative”; under setting [10], “inactive; negative”. Further, the mutagenic call reads like this: (Test System: AMES SALMONELLA TYPHIMURIUM, Strain/Indicator: TA1538, Metabolic Activation: RAT, LIVER, S-9, DELOR 103, Method: STANDARD PLATE) “inactive; negative”; under setting [11], “inactive; negative”; (Test System: CHINESE HAMSTER V-79, Strain/Indicator: V-79/6-THIOGUANINE, Metabolic Activation: RAT HEPATOCYTES, Method: STANDARD PLATE) “inactive; negative”; (Test System: CHINESE HAMSTER V-79, Strain/Indicator: V-79/OUABAIN, Metabolic Activation: NONE, Method: STANDARD PLATE) “inactive; negative”; (Test System: CHINESE HAMSTER V-79, Strain/Indicator: V-79/OUABAIN, Metabolic Activation: RAT HEPATOCYTES, Method: STANDARD PLATE) “inactive; negative”; (Test System: E. COLI, Strain/Indicator: WP2, Metabolic Activation: NONE, Method: STANDARD PLATE) “inactive; negative”. For the same compound, the mutagenic call (Test System: E. COLI, Strain/Indicator: WP2, Metabolic Activation: RAT, LIVER, S-9, AROCLOR 1254, Method: STANDARD PLATE) is “inactive; negative”.

With `ClC(Cl)C(Cl)Cl`, the mutagenic call is, setting by setting: (End Point: IN VITRO CHROMOSOMAL ABERRATIONS, Test System: CHINESE HAMSTER OVARY CELLS, Metabolic Activation: NONE) “inactive; negative; precipitation occurred at 653 ug/ml”; (End Point: IN VITRO CHROMOSOMAL ABERRATIONS, Test System: CHINESE HAMSTER OVARY CELLS, Metabolic Activation: RAT, LIVER, S-9, AROCLOR 1254) “inactive; negative”; under setting [1], “active; positive”; (Test System: AMES SALMONELLA TYPHIMURIUM, Strain/Indicator: TA97, Metabolic Activation: RAT, LIVER, S-9, AROCLOR 1254, Method: STANDARD PLATE) “active; positive”; under setting [2], “active; positive”; under setting [3], “active; positive”. Also, the mutagenic call runs as follows: under setting [4], “active; positive”; under setting [5], “active; positive”; (Test System: AMES SALMONELLA TYPHIMURIUM, Strain/Indicator: TA104, Metabolic Activation: NONE, Method: STANDARD PLATE) “inactive; negative”; (Test System: AMES SALMONELLA TYPHIMURIUM, Strain/Indicator: TA104, Metabolic Activation: RAT, LIVER, S-9, AROCLOR 1254, Method: STANDARD PLATE) “active; positive”; (Test System: AMES SALMONELLA TYPHIMURIUM, Strain/Indicator: TA1530, Metabolic Activation: NONE, Method: SPOT) “active; positive”; (Test System: AMES SALMONELLA TYPHIMURIUM, Strain/Indicator: TA1535, Metabolic Activation: NONE, Method: SPOT) “active; positive”.

`COC(=O)C1=CCCN(N=O)C1`: the mutagenic call by setting is: under setting [2], “active; positive”; (Test System: AMES SALMONELLA TYPHIMURIUM, Strain/Indicator: TA98, Metabolic Activation: RAT, LIVER, S-9, Method: STANDARD PLATE) “active; positive”; under setting [4], “active; positive”; (Test System: AMES SALMONELLA TYPHIMURIUM, Strain/Indicator: TA100, Metabolic Activation: RAT, LIVER, S-9, Method: STANDARD PLATE) “active; positive”.

In the case of `C=CCN1C2c3ccccc3-c3ccccc3C21` (centres undefined), the mutagenic call under setting [4] is “active; positive” and the mutagenic call under setting [11] was “active; positive”.

On to `CC(Br)c1ccccc1` (centres undefined), for which the mutagenic call was “inactive; negative” under setting [2] and “inactive; negative” under setting [4].

Regarding `c1cscn1`, the mutagenic call (Test System: AMES SALMONELLA TYPHIMURIUM, Strain/Indicator: TA98, Metabolic Activation: HAMSTER, LIVER, S-9, AROCLOR 1254, Method: STANDARD PLATE) was “inactive; negative”; the mutagenic call under setting [3] was “inactive; negative”; the mutagenic call (Test System: AMES SALMONELLA TYPHIMURIUM, Strain/Indicator: TA100, Metabolic Activation: HAMSTER, LIVER, S-9, AROCLOR 1254, Method: STANDARD PLATE) is “inactive; negative”; the mutagenic call (Test System: AMES SALMONELLA TYPHIMURIUM, Strain/Indicator: TA1535, Metabolic Activation: HAMSTER, LIVER, S-9, AROCLOR 1254, Method: STANDARD PLATE) was “inactive; negative”; the mutagenic call under setting [6] is “inactive; negative”; the mutagenic call under setting [7] was “inactive; negative”. Also, the mutagenic call is “inactive; negative” (Test System: AMES SALMONELLA TYPHIMURIUM, Strain/Indicator: TA1537, Metabolic Activation: HAMSTER, LIVER, S-9, AROCLOR 1254, Method: STANDARD PLATE); “inactive; negative” under setting [8]; “inactive; negative” under setting [9]; “inactive; negative” (Test System: AMES SALMONELLA TYPHIMURIUM, Strain/Indicator: TA1538, Metabolic Activation: HAMSTER, LIVER, S-9, AROCLOR 1254, Method: STANDARD PLATE); “inactive; negative” under setting [10]; “inactive; negative” (Test System: AMES SALMONELLA TYPHIMURIUM, Strain/Indicator: TA1538, Metabolic Activation: RAT, LIVER, S-9, AROCLOR 1254, Method: STANDARD PLATE). Besides, the mutagenic call (Test System: MOUSE LYMPHOMA, Strain/Indicator: L5178Y (TK+/TK-), Metabolic Activation: NONE, Method: SUSPENSION/PLATE) is “inactive; negative. reevaluation of results: negative” and the mutagenic call (Test System: MOUSE LYMPHOMA, Strain/Indicator: L5178Y (TK+/TK-), Metabolic Activation: RAT, LIVER, S-9, AROCLOR 1254, Method: SUSPENSION/PLATE) was “inactive; negative. reevaluation of results: negative”.
